The values that follow come from patent publication US4613618A, “Method for treating disorders of lipid metabolism using benzene sulfonamides” (Choay S.A., priority 1981, dated 1986).

Where two headings read alike, the source gives them in different places.

In this assay the test system is hyperlipidemia caused by the administration of TRITON. Put plainly: Triton test: lipid regulating activity in hyperlipidemia caused by TRITON W. R. In kind it is in vivo, WISTAR male rats. The note with it: Rattus norvegicus, po, 250 mg/kg orally, 6 hours and/or 24 hours. On the procedure:
In a first series of experiments, products were tested on a hyperlipidemia caused by the administration of TRITON according to the following procedure.
The tests were carried out on groups of five WISTAR male rats whose weight varied from 150 to 175 g.
The tested products were administered, orally in the form of a 3% aqueous solution of tragacanth gum in the ratio of 1 ml per 100 g of body weight, in an amount corresponding to 250 mg/kg.
To carry out these tests, a hyperlipidemia was caused in the animals, by means of the product marketed by the ROHM and HAAS Company under the name TRITON W. R.
On this hyperlipidemia the effects obtained by the administration of the active substances according to the invention, are observed.
The tests were carried out as follows:
the rats were fasted for 18 hours, then the TRITON W. R. was administered intravenously in 10% aqueous solution in the proportion of 200 mg/kg;
simultaneously 250 mg/kg of the product under test was administered orally;
6 hours and/or 24 hours later, blood assays were carried out conventionally.
to the total cholesterol, […]

Where [1] appears, read: read-out: Total cholesterol, % of decrease with respect to Triton control.
Where [2] appears, read: read-out: Total lipids, % of decrease with respect to Triton control.
Where [3] appears, read: read-out: Triglycerides, % of decrease with respect to Triton control.

Take `CCOC(=O)CCCCCNS(=O)(=O)c1cc(Cl)c([N+](=O)[O-])cc1OC` [compound 380, ethyl ester of (5-chloro 4-nitro 2-methoxy benzenesulfonamide)caproic acid]: the change in vivo at 250 mg/kg was -19% under setting [1], -31% under setting [2] and -86% under setting [3].
Turning to `CCOC(=O)CCCCCNS(=O)(=O)c1cc(Cl)c(N)cc1OC` [compound 469], the change in vivo at 250 mg/kg under setting [1] was -3%, the change in vivo at 250 mg/kg under setting [2] is -30% and the change in vivo at 250 mg/kg under setting [3] was -28%.
For `CCOC(=O)CCCNS(=O)(=O)c1cc(Cl)c(N)cc1OC` [compound 484], under setting [2], the change in vivo at 250 mg/kg is -41%.
In the case of `CCOC(=O)CCCNS(=O)(=O)c1cc(Cl)c([N+](=O)[O-])cc1OC` [compound 486], the change in vivo at 250 mg/kg by setting is: under setting [2], -66%; under setting [3], -21%.
In the case of `COc1cc([N+](=O)[O-])c(Cl)cc1S(=O)(=O)NCCCCCCCCCCC(=O)O` [compound 501], the change in vivo at 250 mg/kg was -24% under setting [1], -17% under setting [2] and -18% under setting [3].
In the case of `CCOC(=O)CCCCCCCCCCNS(=O)(=O)c1cc(Cl)c(N)cc1OC` [compound 503], the change in vivo at 250 mg/kg reads like this: under setting [2], -26%; under setting [3], -18%.
Take `COc1cc([N+](=O)[O-])c(Cl)cc1S(=O)(=O)NCCCCCCCC(=O)O` [compound 504]: the change in vivo at 250 mg/kg under setting [1] was -45%.
As for `CCOC(=O)CCCCCCCNS(=O)(=O)c1cc(Cl)c([N+](=O)[O-])cc1OC` [compound 508], the change in vivo at 250 mg/kg was -8% under setting [1] and -17% under setting [2].
As for `O=C(O)CCCCCNS(=O)(=O)c1ccc([N+](=O)[O-])cc1` [compound 562], the change in vivo at 250 mg/kg under setting [2] was -6%.
Regarding `CCOC(=O)CCCCCNS(=O)(=O)c1ccc([N+](=O)[O-])cc1` [compound 563], the change in vivo at 250 mg/kg under setting [1] is -8% and the change in vivo at 250 mg/kg under setting [2] was -27%.
Consider `O=C(O)CCCCCCCCCCNS(=O)(=O)c1ccc([N+](=O)[O-])cc1` [compound 564], for which the change in vivo at 250 mg/kg is, setting by setting: under setting [2], -37%; under setting [3], -15%.
For `CCOC(=O)CCCCCNS(=O)(=O)c1ccc([N+](=O)[O-])cc1OC` [compound 608], the change in vivo at 250 mg/kg by setting is: under setting [1], -19%; under setting [2], -15%.
For the compound `CCOC(=O)CCCCCNS(=O)(=O)c1ccc(N)cc1` [compound 609], the change in vivo at 250 mg/kg was -40% under setting [1] and -2% under setting [3].
`CCOC(=O)CCCCCCCCCCNS(=O)(=O)c1ccc([N+](=O)[O-])cc1` [compound 610]: the change in vivo at 250 mg/kg was -20% under setting [1] and -2% under setting [2].
As to `CCOC(=O)CCCCCCCCCCNS(=O)(=O)c1ccc([N+](=O)[O-])cc1OC` [compound 611], the change in vivo at 250 mg/kg is -29% under setting [1] and -15% under setting [2].
Turning to `CCOC(=O)CCCCCNS(=O)(=O)c1ccc(N)cc1OC` [compound 612], the change in vivo at 250 mg/kg is -1% under setting [1], -48% under setting [2] and -13% under setting [3].
As for `CCOC(=O)CCCNS(=O)(=O)c1ccc(N)cc1` [compound 624], under setting [1], the change in vivo at 250 mg/kg is -18%.
In the case of `CCOC(=O)CCCNS(=O)(=O)c1ccc([N+](=O)[O-])cc1OC` [compound 625], the change in vivo at 250 mg/kg under setting [3] is -5%.
For `CCOC(=O)CCCCCCCCCCNS(=O)(=O)c1ccc(N)cc1` [compound 626], the change in vivo at 250 mg/kg under setting [1] is -18%.
With `CCOC(=O)CCCNS(=O)(=O)c1ccc(N)cc1OC` [compound 656], the change in vivo at 250 mg/kg under setting [1] was -14%, the change in vivo at 250 mg/kg under setting [2] is -3% and the change in vivo at 250 mg/kg under setting [3] was -29%.
The matching figures for `COc1cc([N+](=O)[O-])ccc1S(=O)(=O)NCCCC(=O)O` [compound 660]: -42%, -36% and -90%.
`COc1cc([N+](=O)[O-])ccc1S(=O)(=O)NCCCCCCCCCCC(=O)O` [compound 661]: the change in vivo at 250 mg/kg under setting [1] is -37% and the change in vivo at 250 mg/kg under setting [3] is -86%.
Turning to `CCOC(=O)CCCCCNS(=O)(=O)c1cccc([N+](=O)[O-])c1` [compound 666], the change in vivo at 250 mg/kg under setting [2] was -20%.
Turning to `Nc1ccc(S(=O)(=O)NCCCCCCCCCCC(=O)O)cc1` [compound 667], the change in vivo at 250 mg/kg by setting is: under setting [1], -7%; under setting [2], -45%.
Turning to `COc1cc(N)ccc1S(=O)(=O)NCCCCCCCCCCC(=O)O` [compound 668], the change in vivo at 250 mg/kg under setting [1] was -27%, the change in vivo at 250 mg/kg under setting [2] was -20% and the change in vivo at 250 mg/kg under setting [3] was -29%.
With `Nc1cccc(S(=O)(=O)NCCCC(=O)O)c1` [compound 680], the change in vivo at 250 mg/kg reads like this: under setting [2], -46%; under setting [3], -16%.
With `CCOC(=O)CCCCCNS(=O)(=O)c1cccc(N)c1` [compound 682], the change in vivo at 250 mg/kg runs as follows: under setting [2], -22%; under setting [3], -34%.
Take `CCOC(=O)CCCCCCCCCCNS(=O)(=O)c1cccc(N)c1` [compound 683]: the change in vivo at 250 mg/kg under setting [2] was -19% and the change in vivo at 250 mg/kg under setting [3] is -52%.
On to `COc1cc(N)ccc1S(=O)(=O)NCCCCCC(=O)O` [compound 694, ε(4-amino 2-methoxybenzenesulfonamido)caproic acid], for which the change in vivo at 250 mg/kg under setting [1] was -32%, the change in vivo at 250 mg/kg under setting [2] is -31% and the change in vivo at 250 mg/kg under setting [3] is -65%.
Consider `Nc1cccc(S(=O)(=O)NCCCCCCCCCCC(=O)O)c1` [compound 695], for which the change in vivo at 250 mg/kg by setting is: under setting [1], -24%; under setting [2], -20%; under setting [3], -27%.
Turning to `COc1cc([N+](=O)[O-])ccc1S(=O)(=O)NCCCCCC(=O)O` [compound 696, ε(4-nitro 2-methoxybenzenesulfonamido)caproic acid], the change in vivo at 250 mg/kg is -56% under setting [1], -46% under setting [2] and -59% under setting [3].
With `O=C(O)CCCCCCCCCCNS(=O)(=O)c1cccc([N+](=O)[O-])c1` [compound 697], the change in vivo at 250 mg/kg is -46% under setting [1], -35% under setting [2] and -50% under setting [3].
For the compound `CCOC(=O)CCCCCCCCCCNS(=O)(=O)c1ccc(Cl)cc1` [compound 728], the change in vivo at 250 mg/kg is -32% under setting [2] and -53% under setting [3].
Take `CCOC(=O)CCCCCCCNS(=O)(=O)c1cc(Cl)c(N)cc1OC` [compound 730]: the change in vivo at 250 mg/kg under setting [3] was -10%.
For `O=C(O)CCCCCNS(=O)(=O)c1cccs1` [compound 800], the change in vivo at 250 mg/kg by setting is: under setting [1], -13%; under setting [2], -33%; under setting [3], -5%.
`O=C(O)CCCCCCCCCCNS(=O)(=O)c1cccs1` [compound 823]: the change in vivo at 250 mg/kg was -41% under setting [1] and -25% under setting [2].
